Results taken from PMC4468608, “A distinct p53 target gene set predicts for response to the selective p53–HDM2 inhibitor NVP-CGM097” (eLife, 2015).
pIC50: −log10 of the molar value. Where two headings read alike, the source gives them in different places.

Test system: cell lines from the Cancer Cell Line Encyclopedia (CCLE)
Test: High-throughput cell viability assay, CCLE cell line panel (n = 356)
Assay type: cell-based, human
Conditions: Homo sapiens
Procedure: Cell lines were partitioned into sensitive and insensitive groups based on compound potency (IC50). […] All other cell lines were obtained from ATCC (American Type Culture Collection), DSMZ (Deutsche Sammlung von Mikroorganismen und Zellkulturen), and HSRRB (Health Science Research Resources Bank) and cultured in RPMI or Dulbecco's modified Eagle's medium plus 10% FBS (Invitrogen, Carlsbad, CA) at 37°C, 5% CO2.

COc1cc2c(cc1OC(C)C)[C@H](c1ccc(Cl)cc1)N(c1ccc(N(C)C[C@H]3CC[C@H](N4CCNC(=O)C4)CC3)cc1)C(=O)C2 [NVP-CFC218]
pIC50 (PC-3, TP53 MUT): < 5.10
pIC50 (PC-14, PC-14, TP53 MUT): < 5.10
pIC50 (PE/CA-PJ34 (clone C12), TP53 MUT): < 5.10
pIC50 (PE/CA-PJ49, TP53 WT): < 5.10
pIC50 (PK-1, TP53 MUT): < 5.10
pIC50 (PK-45H, TP53 WT): < 5.10
pIC50 (PL-21, PL-21, TP53 MUT): < 5.10
pIC50 (PSN1, PSN1, TP53 MUT): < 5.10
pIC50 (PaTu 8902, PA-TU-8902, TP53 MUT): < 5.10
pIC50 (Panc 04.03, Panc 04.03, TP53 MUT): < 5.10
pIC50 (QGP-1, QGP-1, TP53 WT): < 5.10
pIC50 (RCM-1, RCM-1, TP53 MUT): < 5.10
pIC50 (RERF-GC-1B, TP53 MUT): < 5.10
pIC50 (RERF-LC-AI, TP53 WT): < 5.10
pIC50 (RERF-LC-MS, TP53 MUT): < 5.10
pIC50 (RKO, TP53 WT): 5.19
pIC50 (RPMI 8402, RPMI-8402, TP53 MUT): < 5.10
pIC50 (RT-112, RT-112, TP53 MUT): < 5.10
pIC50 (Raji, TP53 MUT): < 5.10
pIC50 (Reh, TP53 WT): 5.58
pIC50 (S-117, S-117, TP53 MUT): < 5.10
pIC50 (SBC-5, SBC-5, TP53 MUT): < 5.10
pIC50 (SCC-4, SCC-4, TP53 MUT): < 5.10
pIC50 (SCC-9, SCC-9, TP53 MUT): < 5.10
pIC50 (SCC-25, SCC-25, TP53 MUT): < 5.10
IC50 (SCaBER, read-out: NVP- CFC218 IC50 (µM), cell line SCaBER, urinary_tract, TP53 MUT): > 8 µM
pIC50 (SF-295, SF-295, TP53 MUT): < 5.10
pIC50 (SH-10-TC, TP53 MUT): < 5.10
pIC50 (SHP77, SHP-77, TP53 MUT): < 5.10
pIC50 (SJRH30, SJRH30, TP53 MUT): < 5.10
pIC50 (SK-BR-3, SK-BR-3, TP53 MUT): < 5.10
IC50 (SK-HEP1, read-out: NVP- CFC218 IC50 (µM), cell line SK-HEP-1, liver, TP53 WT): > 8 µM
pIC50 (SK-LMS-1, SK-LMS-1, TP53 MUT): < 5.10
pIC50 (SK-LU-1, SK-LU-1, TP53 MUT): < 5.10
IC50 (SK-MEL-5, read-out: NVP- CFC218 IC50 (µM), cell line SK-MEL-5, skin, TP53 WT): > 8 µM
IC50 (SK-MEL-24, read-out: NVP- CFC218 IC50 (µM), cell line SK-MEL-24, skin, TP53 WT): > 8 µM
pIC50 (SK-MEL-30, SK-MEL-30, TP53 MUT): < 5.10
pIC50 (SK-MES-1, SK-MES-1, TP53 MUT): < 5.10
pIC50 (SK-N-AS, TP53 WT): < 5.10
pIC50 (SK-N-FI, TP53 MUT): < 5.10
pIC50 (SK-OV-3, SK-OV-3, TP53 MUT): < 5.10
pIC50 (SNU-182, SNU-182, TP53 MUT): < 5.10
IC50 (SNU-423, read-out: NVP- CFC218 IC50 (µM), cell line SNU-423, liver, TP53 MUT): > 8 µM
pIC50 (SNU-475, SNU-475, TP53 MUT): < 5.10
pIC50 (SU-DHL-4, SU-DHL-4, TP53 MUT): < 5.10
pIC50 (SU-DHL-8, SU-DHL-8, TP53 MUT): < 5.10
pIC50 (SUP-M2, SUP-M2, TP53 WT): 6.00
pIC50 (SW480, SW480, TP53 MUT): < 5.10
pIC50 (SW579, SW579, TP53 MUT): < 5.10
IC50 (SW780, read-out: NVP- CFC218 IC50 (µM), cell line SW 780, urinary_tract, TP53 WT): > 8 µM
pIC50 (SW900, SW 900, TP53 MUT): < 5.10
pIC50 (SW1271, SW 1271, TP53 MUT): < 5.10
pIC50 (SW1353, SW 1353, TP53 MUT): 5.31
pIC50 (SW1417, SW1417, TP53 MUT): < 5.10
IC50 (SW1573, read-out: NVP- CFC218 IC50 (µM), cell line SW 1573, lung, TP53 WT): > 8 µM
pIC50 (SW1783, SW 1783, TP53 MUT): < 5.10
pIC50 (SW1990, SW 1990, TP53 MUT): < 5.10
IC50 (SW-403, read-out: NVP- CFC218 IC50 (µM), cell line SW403, large_intestine, TP53 MUT): > 8 µM
pIC50 (T98G, TP53 MUT): < 5.10
pIC50 (TE 617.T, TP53 WT): 5.54
pIC50 (TE-1, TP53 MUT): < 5.10
pIC50 (TE-5, TP53 MUT): < 5.10
IC50 (TE-11, read-out: NVP- CFC218 IC50 (µM), cell line TE-11, oesophagus, TP53 MUT): > 8 µM
pIC50 (TOV21G, TOV-21G, TP53 WT): 5.27
pIC50 (TT2609-C02, TP53 MUT): < 5.10
pIC50 (U-87 MG, TP53 WT): < 5.10
pIC50 (U-937, U-937, TP53 MUT): < 5.10
IC50 (UMUC3, read-out: NVP- CFC218 IC50 (µM), cell line UM-UC-3, urinary_tract, TP53 MUT): > 8 µM
pIC50 (VMRC-RCZ, TP53 WT): < 5.10
pIC50 (WM 266-4, WM-266-4, TP53 WT): 5.84
pIC50 (WM983B, WM-983B, TP53 MUT): < 5.10
pIC50 (WM-115, WM-115, TP53 WT): 5.47
pIC50 (WSUDLCL2, WSU-DLCL2, TP53 MUT): < 5.10
pIC50 (YKG-1, YKG1, TP53 MUT): < 5.10
IC50 (read-out: NVP- CFC218 IC50 (µM), cell line BICR 31, upper_aerodigestive_tract, TP53 MUT): > 8 µM
IC50 (read-out: NVP- CFC218 IC50 (µM), cell line C3A, liver, TP53 WT): > 8 µM
IC50 (read-out: NVP- CFC218 IC50 (µM), cell line C32, skin, TP53 WT): > 8 µM
IC50 (read-out: NVP- CFC218 IC50 (µM), cell line CCK-81, large_intestine, TP53 MUT): > 8 µM
IC50 (read-out: NVP- CFC218 IC50 (µM), cell line ES-2, ovary, TP53 MUT): > 8 µM
IC50 (read-out: NVP- CFC218 IC50 (µM), cell line HEC-108, endometrium, TP53 MUT): > 8 µM
IC50 (read-out: NVP- CFC218 IC50 (µM), cell line HEC-265, endometrium, TP53 WT): > 8 µM
IC50 (read-out: NVP- CFC218 IC50 (µM), cell line Hs 618.T, lung, TP53 WT): > 8 µM
IC50 (read-out: NVP- CFC218 IC50 (µM), cell line Hs 888.T, bone, TP53 WT): > 8 µM
IC50 (read-out: NVP- CFC218 IC50 (µM), cell line Hs 944.T, skin, TP53 WT): > 8 µM
IC50 (read-out: NVP- CFC218 IC50 (µM), cell line JHOS-2, ovary, TP53 MUT): > 8 µM
